Drawing on US10500195B2, “Antibacterial compounds” (WOCKHARDT LIMITED, priority 2017, dated 2019), this text covers MIC, melting point and Bacterial count for nine molecules.

Structures are written as SMILES. Converted amounts (≈) assume the structure as drawn.

One series has as its system E. coli 13351. The experiment in a line: Antibacterial activity (MIC), agar dilution per CLSI. The class given is cell-based. To be noted: Escherichia coli. The procedure: (§1) The biological activity of representative compounds according to the invention against various bacterial strains was investigated. In a typical study, overnight grown bacterial cultures were diluted appropriately and inoculated on the agar media containing doubling dilutions of the test compounds. Observation for growth or no growth was performed after 16-20 hours of incubation at 35±2° C. in ambient air. The overall procedure was performed as per Clinical and Laboratory Standards Institute (CLSI) recommendations (Clinical and Laboratory Standards Institute (CLSI), Performance Standards for Antimicrobial Susceptibility Testing, 20th Informational Supplement, M 100-S20, Volume 30, No. 1, 2010).
Background: Agar dilution tests growth on a series of plates holding different concentrations.

The subject of the next series is E. coli 13352. The description is as above. As to conditions: Escherichia coli. The class given is cell-based. The procedure: as §1
In a further series the test system is E. coli 13353. The series is described as above. Type of series: cell-based. To be noted: Escherichia coli. The procedure: as §1
The subject of a further series is E. coli 7MP. The series is described as above. The class given is cell-based. As to conditions: Escherichia coli. The procedure:
as §1

Another series has as its system E. coli M 138. The series is described as above. Type of series: cell-based. To be noted: Escherichia coli, M138. The procedure: as §1
The next series concerns E. coli M 36. The series is described as above. The class given is cell-based. As to conditions: Escherichia coli, M36. The procedure: as §1
A further series has as its system E. coli M 49. Described as above. To be noted: Escherichia coli, M49. Type of series: cell-based. The procedure:
as §1

A further series relates to E. coli M 50. The description is as above. Type of series: cell-based. As to conditions: Escherichia coli, M50. The procedure:
as §1

In series [1] the test system is K. pneumoniae ATCC 700603. The series is described as above. Type of series: cell-based. As to conditions: Klebsiella pneumoniae, ATCC700603. The procedure: as §1
A further series concerns K. pneumoniae H521. Described as above. The class given is cell-based. As to conditions: Klebsiella pneumoniae. The procedure: as §1
The next series relates to K. pneumoniae H522. Described as above. Type of series: cell-based. To be noted: Klebsiella pneumoniae. The procedure: as §1
The subject of another series is K. pneumoniae H523. The series is described as above. Type of series: cell-based. As to conditions: Klebsiella pneumoniae. The procedure:
as §1

A further series deals with K. pneumoniae H525. Described as above. To be noted: Klebsiella pneumoniae. Type of series: cell-based. The procedure: as §1
The test system of series [2] is E. coli strain M50 (CMY, DHA). The experiment in a line: Time-dependent bacterial kill study. As to conditions: initial count 7.18 log10 CFU/ml. Type of series: cell-based. The procedure: In these studies, the initial bacterial count (at 0 hours) was 7.18 log10 CFU/ml. In general, 1, 2 and 3 log bacterial kill over initial count corresponds to […] bactericidal effect. In a typical time-dependent bacterial kill studies, freshly grown bacterial cultures were diluted to target cell density (initial starting inoculum) in Cation adjusted Muller Hinton broth medium (BD, USA). The antibacterial agents (either alone or in combination) at the required concentrations were added into the culture-containing medium. The sample flasks were incubated under shaking condition (120 rpm) at 37° C. Enumeration of viable bacterial count was undertaken periodically by diluting the sample in normal saline and plating on to the Tryptic Soya Agar plates (BD, USA). The plates were incubated for 24 hours to estimate viable bacterial count. The results are expressed in terms of Log10 CFU per ml.

Setting [3] is: 2 hours, antibacterial agent alone 8 μg/ml.
Setting [4] is: 4 hours, antibacterial agent alone 8 μg/ml.
The mark [5] stands for this setting: 6 hours, antibacterial agent alone 8 μg/ml.
The mark [6] stands for this setting: 8 hours, antibacterial agent alone 8 μg/ml.

By MIC is commonly meant the smallest concentration in the dilution series that meets the test's criterion for growth inhibition. The melting point is the temperature of the solid-liquid transition. Regarding `O=C(NOC[C@H]1C[C@@H](F)CN1)[C@@H]1CC[C@@H]2CN1C(=O)N2OS(=O)(=O)O` [Example 4, (2S, 5R)-N-{[(2R, 4R)-4-fluoropyrrolidin-2-yl]methyloxy}-7-oxo-6-(sulfooxy)-1,6-diazabicyclo[3.2.1]octane-2-carboxamide], the melting point is 207 to 209 °C (dec.). In the series on E. coli 13351, this molecule returned an MIC of 2 µg/mL (≈ 5.23 µM). In addition, the MIC in the series with E. coli 13352 turned out to be 4 µg/mL (≈ 10.5 µM). The molecule also displayed an MIC in the series with E. coli 13353 of 1 µg/mL (≈ 2.62 µM). It took 4 µg/mL (≈ 10.5 µM) to inhibit growth against E. coli 7MP (MIC). This molecule also displayed an MIC against E. coli M 138 of 2 µg/mL (≈ 5.23 µM). Also, the MIC in the series on E. coli M 36 was 1 µg/mL (≈ 2.62 µM). The MIC against E. coli M 49 is 4 µg/mL (≈ 10.5 µM). In the series with E. coli M 50, this molecule returned an MIC of 2 µg/mL (≈ 5.23 µM). Moreover, in series [1], the MIC is above 32 µg/mL. Besides, the MIC with K. pneumoniae H521 was determined as 4 µg/mL (≈ 10.5 µM). For the same molecule, the MIC against K. pneumoniae H522 amounted to 4 µg/mL (≈ 10.5 µM). This molecule yielded an MIC in the series with K. pneumoniae H523 of 4 µg/mL (≈ 10.5 µM). Also, the lowest concentration to inhibit growth in the series with K. pneumoniae H525 (MIC) was 2 µg/mL (≈ 5.23 µM).

Regarding `CO/N=C(\C(=O)N[C@@H]1C(=O)N2C(C(=O)[O-])=C(C[N+]3(C)CCCC3)CS[C@H]12)c1csc(N)n1` [Cefepime], the Bacterial count amounted to 7.85 Log10 CFU per ml in series [2] (setting [3]), 8.65 Log10 CFU per ml in series [2] (setting [4]), 8.90 Log10 CFU per ml in [2] (setting [5]) and 9.0 Log10 CFU per ml in series [2] (setting [6]).

With `C=CC1=C(C(=O)O)N2C(=O)[C@@H](NC(=O)/C(=N\OCC(=O)O)c3csc(N)n3)[C@H]2SC1` [Cefixime], the Bacterial count in series [2] (setting [3]) is given as 7.85 Log10 CFU per ml; in [2] (setting [4]), 8.90 Log10 CFU per ml; in series [2] (setting [5]) it was 8.78 Log10 CFU per ml; in series [2] (setting [6]), 9.04 Log10 CFU per ml.

On to `CC(C)(O/N=C(\C(=O)N[C@@H]1C(=O)N2C(C(=O)[O-])=C(C[n+]3ccccc3)CS[C@H]12)c1csc(N)n1)C(=O)O` [Ceftazidime], for which the Bacterial count in [2] (setting [3]) is recorded as 7.81 Log10 CFU per ml; in [2] (setting [4]) it was 8.90 Log10 CFU per ml; in [2] (setting [5]) it was 9.0 Log10 CFU per ml; in series [2] (setting [6]) it was 8.92 Log10 CFU per ml.

As for `Nc1nc(/C(=C/CC(=O)O)C(=O)N[C@@H]2C(=O)N3C(C(=O)O)=CCS[C@H]23)cs1` [Ceftibuten], the Bacterial count in series [2] (setting [3]) amounted to 7.98 Log10 CFU per ml; in series [2] (setting [4]) it was 8.30 Log10 CFU per ml; in [2] (setting [5]), 8.74 Log10 CFU per ml; in series [2] (setting [6]), 9.48 Log10 CFU per ml.

On to `COCC1=C(C(=O)O)N2C(=O)[C@@H](NC(=O)/C(=N\OC)c3csc(N)n3)[C@H]2SC1` [Cefpodoxime], for which the Bacterial count in series [2] (setting [3]) is reported as 7.95 Log10 CFU per ml; in series [2] (setting [4]), 8.70 Log10 CFU per ml; in [2] (setting [5]), 8.95 Log10 CFU per ml; in [2] (setting [6]) it was 9.30 Log10 CFU per ml.

For the molecule `O=C(NOC[C@@H]1C[C@@H](F)CN1)[C@@H]1CC[C@@H]2CN1C(=O)N2OS(=O)(=O)O` [Example 2, (2S, 5R)-N-{[(2S, 4R)-4-fluoropyrrolidin-2-yl]methyloxy}-7-oxo-6-(sulfooxy)-1,6-diazabicyclo[3.2.1]octane-2-carboxamide], the melting point was 160 to 163 °C (dec.). Moreover, in the series on E. coli 13351, the MIC was 1 µg/mL (≈ 2.62 µM). In the series with E. coli 13352, this molecule had an MIC of 2 µg/mL (≈ 5.23 µM). This molecule yielded an MIC in the series with E. coli 13353 of 1 µg/mL (≈ 2.62 µM). This molecule gave an MIC in the series on E. coli 7MP of 2 µg/mL (≈ 5.23 µM). The molecule further gave an MIC against E. coli M 138 of 2 µg/mL (≈ 5.23 µM). Further, it took 1 µg/mL (≈ 2.62 µM) to inhibit growth with E. coli M 36 (MIC). The molecule further came in with an MIC against E. coli M 49 of 4 µg/mL (≈ 10.5 µM). Besides, in the series with E. coli M 50, the lowest concentration to inhibit growth (MIC) was 2 µg/mL (≈ 5.23 µM). The MIC in [1] is above 32 µg/mL. In the series with K. pneumoniae H521, this molecule had an MIC of 4 µg/mL (≈ 10.5 µM). This molecule had an MIC in the series with K. pneumoniae H522 of 4 µg/mL (≈ 10.5 µM). Further, the MIC in the series on K. pneumoniae H523 worked out at 4 µg/mL (≈ 10.5 µM). In the series on K. pneumoniae H525, this molecule gave a minimum inhibitory concentration (MIC) of 4 µg/mL (≈ 10.5 µM).

In the case of `O=C(NOC[C@H]1C[C@H](F)CN1)[C@@H]1CC[C@@H]2CN1C(=O)N2OS(=O)(=O)O` [Example 3, (2S, 5R)-N-{[(2R, 4S)-4-fluoropyrrolidin-2-yl]methyloxy}-7-oxo-6-(sulfooxy)-1,6-diazabicyclo[3.2.1]octane-2-carboxamide], the melting point was 175 to 178 °C (dec.). Also, 1 µg/mL (≈ 2.62 µM) was the least that counted as inhibitory with E. coli 13351 (MIC). Also, the MIC with E. coli 13352 stood at 2 µg/mL (≈ 5.23 µM). This molecule had an MIC against E. coli 13353 of 1 µg/mL (≈ 2.62 µM). This molecule also displayed an MIC against E. coli 7MP of 2 µg/mL (≈ 5.23 µM). In the series on E. coli M 138, this molecule showed an MIC of 1 µg/mL (≈ 2.62 µM). In addition, it took 1 µg/mL (≈ 2.62 µM) to inhibit growth in the series on E. coli M 36 (MIC). The MIC in the series on E. coli M 49 came out at 4 µg/mL (≈ 10.5 µM). This molecule also displayed an MIC against E. coli M 50 of 1 µg/mL (≈ 2.62 µM). This molecule also returned an MIC in [1] above 32 µg/mL. This molecule also gave a minimum inhibitory concentration (MIC) with K. pneumoniae H521 of 2 µg/mL (≈ 5.23 µM). This molecule also had an MIC with K. pneumoniae H522 of 2 µg/mL (≈ 5.23 µM). The molecule further had an MIC in the series on K. pneumoniae H523 of 2 µg/mL (≈ 5.23 µM). This molecule also showed an MIC in the series on K. pneumoniae H525 of 2 µg/mL (≈ 5.23 µM).

As for `O=C(NOC[C@@H]1C[C@H](F)CN1)[C@@H]1CC[C@@H]2CN1C(=O)N2OS(=O)(=O)O` [Example 1, (2S, 5R)-N-{[(2S, 4S)-4-fluoropyrrolidin-2-yl]methyloxy}-7-oxo-6-(sulfooxy)-1,6-diazabicyclo[3.2.1]octane-2-carboxamide], the melting point is 180 to 183 °C (dec.). This molecule had an MIC against E. coli 13351 of 0.5 µg/mL (≈ 1.31 µM). Further, in the series on E. coli 13352, inhibition of growth (MIC) required 1 µg/mL (≈ 2.62 µM). For the same molecule, in the series on E. coli 13353, the MIC is 0.5 µg/mL (≈ 1.31 µM). Further, inhibition of growth in the series on E. coli 7MP (MIC) required 1 µg/mL (≈ 2.62 µM). In the series on E. coli M 138, the MIC is 0.5 µg/mL (≈ 1.31 µM). The molecule further had an MIC against E. coli M 36 of 0.25 µg/mL (≈ 0.654 µM). Further, inhibition of growth against E. coli M 49 (MIC) required 4 µg/mL (≈ 10.5 µM). Moreover, the MIC in the series on E. coli M 50 came to 0.5 µg/mL (≈ 1.31 µM). The molecule also displayed an MIC in series [1] above 32 µg/mL. Besides, the MIC in the series on K. pneumoniae H521 stood at 1 µg/mL (≈ 2.62 µM). In the series on K. pneumoniae H522, it took 1 µg/mL (≈ 2.62 µM) to inhibit growth (MIC). The same molecule had an MIC with K. pneumoniae H523 of 1 µg/mL (≈ 2.62 µM). Also, in the series on K. pneumoniae H525, the MIC was 0.5 µg/mL (≈ 1.31 µM). In addition, in series [2] (2 hours, Compound of Formula (Ia) alone 4 μg/ml), the Bacterial count came out at 7.78 Log10 CFU per ml. Moreover, in [2] (4 hours, Compound of Formula (Ia) alone 4 μg/ml), the Bacterial count stood at 6.74 Log10 CFU per ml. Further, the Bacterial count in [2] (6 hours, Compound of Formula (Ia) alone 4 μg/ml) came to 5.85 Log10 CFU per ml. In addition, the Bacterial count in series [2] (8 hours, Compound of Formula (Ia) alone 4 μg/ml) is on record as 6.13 Log10 CFU per ml.
